Values quoted from earlier work in US8703739B2, “Intravascular indwelling catheter lock solution containing weak acid and container containing the same” (priority 2008, dated 2014).
Read-outs that look alike come from different tables or passages of the source.

Buffer pKa (second pKa)	Compound	Buffer pKa (first pKa)
	O=C1O[C@H]([C@@H](O)CO)C(O)=C1O [ascorbic acid]	4.16
4.77	O=C(O)CC(O)C(=O)O (stereo not drawn) [malic acid]	3.23
